Data published in patent US12708665B2, “Anti-IL-1β antibody therapy in arrhythmogenic cardiomyopathy (ACM)” (Beth Israel Deaconess Medical Center, Inc., priority 2019, dated 2026).

Test system: Dsg2^mut/mut mice
Experiment: Cytokine arrays, cytokine expression in hearts of Dsg2^mut/mut mice treated with Bay 11-7082
Type: in vivo
Conditions: cytokine expression level, mouse heart
Description: Quantitative data (mean±SEM; n=5) for expression of selected cytokines in hearts of vehicle-treated wildtype (WT) mice, Dsg2^mut/mut mice and Dsg2^mut/mut mice treated with Bay 11-7082. * P<0.05 compared to WT; †P<0.05 for treated vs. untreated Dsg2^mut/mut mice.
To characterize production of chemical mediators of the immune response in ACM, we used arrays to measure 111 different cytokines in the hearts of Dsg2^mut/mut mice and compared the amounts to those measured in the hearts of WT mice and Dsg2^mut/mut mice treated with Bay 11-7082. We observed substantial expression of multiple cytokines in the hearts of Dsg2^mut/mut mice. […] Powerful inflammatory mediators were expressed in Dsg2^mut/mut hearts including IL-1β (up by ~13-fold compared to WT hearts), IFNγ (~5-fold), IL-12 (~6-fold) and TNFα (~2-fold). […] Finally, there were increases in some molecules that fulfill anti-inflammatory roles such as IL-1Ra (up by ~4-fold).

Cc1ccc(S(=O)(=O)/C=C/C#N)cc1 [Bay11-7082]
<1: Complement Component C5/C5a, Dsg2^mut/mut (Bay11-7082) vs Dsg2^mut/mut | Complement Component C5/C5a, Dsg2^mut/mut (Bay11-7082) vs WT | Complement Factor D, Dsg2^mut/mut (Bay11-7082) vs Dsg2^mut/mut | Complement Factor D, Dsg2^mut/mut (Bay11-7082) vs WT | Cystatin C, Dsg2^mut/mut (Bay11-7082) vs Dsg2^mut/mut | Cystatin C, Dsg2^mut/mut (Bay11-7082) vs WT | DKK-1, Dsg2^mut/mut (Bay11-7082) vs Dsg2^mut/mut | DKK-1, Dsg2^mut/mut (Bay11-7082) vs WT | DPPIV/CD26, Dsg2^mut/mut (Bay11-7082) vs Dsg2^mut/mut | E-Selectin/CD62E, Dsg2^mut/mut (Bay11-7082) vs Dsg2^mut/mut | E-Selectin/CD62E, Dsg2^mut/mut (Bay11-7082) vs WT | EGF, Dsg2^mut/mut (Bay11-7082) vs Dsg2^mut/mut | Endoglin/CD105, Dsg2^mut/mut (Bay11-7082) vs Dsg2^mut/mut | Endoglin/CD105, Dsg2^mut/mut (Bay11-7082) vs WT | Endostatin, Dsg2^mut/mut (Bay11-7082) vs Dsg2^mut/mut | Endostatin, Dsg2^mut/mut (Bay11-7082) vs WT | Eotaxin (CCL11), Dsg2^mut/mut (Bay11-7082) vs Dsg2^mut/mut | Eotaxin (CCL11), Dsg2^mut/mut (Bay11-7082) vs WT | FGF acidic, Dsg2^mut/mut (Bay11-7082) vs Dsg2^mut/mut | FGF acidic, Dsg2^mut/mut (Bay11-7082) vs WT | FGF-21, Dsg2^mut/mut (Bay11-7082) vs Dsg2^mut/mut | FGF-21, Dsg2^mut/mut (Bay11-7082) vs WT | FLt-3 Ligand, Dsg2^mut/mut (Bay11-7082) vs Dsg2^mut/mut | FLt-3 Ligand, Dsg2^mut/mut (Bay11-7082) vs WT | Fetuin A/AHSG, Dsg2^mut/mut (Bay11-7082) vs Dsg2^mut/mut | Fetuin A/AHSG, Dsg2^mut/mut (Bay11-7082) vs WT | G-CSF, Dsg2^mut/mut (Bay11-7082) vs Dsg2^mut/mut | GDF-15, Dsg2^mut/mut (Bay11-7082) vs Dsg2^mut/mut | GDF-15, Dsg2^mut/mut (Bay11-7082) vs WT | GM-CSF, Dsg2^mut/mut (Bay11-7082) vs Dsg2^mut/mut | GM-CSF, Dsg2^mut/mut (Bay11-7082) vs WT | Gas 6, Dsg2^mut/mut (Bay11-7082) vs Dsg2^mut/mut | Gas 6, Dsg2^mut/mut (Bay11-7082) vs WT | HGF, Dsg2^mut/mut (Bay11-7082) vs Dsg2^mut/mut | I-TAC (CXCL11), Dsg2^mut/mut (Bay11-7082) vs Dsg2^mut/mut | I-TAC (CXCL11), Dsg2^mut/mut (Bay11-7082) vs WT | IFN-y, Dsg2^mut/mut (Bay11-7082) vs Dsg2^mut/mut | IGFBP-1, Dsg2^mut/mut (Bay11-7082) vs Dsg2^mut/mut | IGFBP-2, Dsg2^mut/mut (Bay11-7082) vs Dsg2^mut/mut | IGFBP-2, Dsg2^mut/mut (Bay11-7082) vs WT | IGFBP-3, Dsg2^mut/mut (Bay11-7082) vs Dsg2^mut/mut | IGFBP-3, Dsg2^mut/mut (Bay11-7082) vs WT | IGFBP-5, Dsg2^mut/mut (Bay11-7082) vs Dsg2^mut/mut | IGFBP-5, Dsg2^mut/mut (Bay11-7082) vs WT | IGFBP-6, Dsg2^mut/mut (Bay11-7082) vs Dsg2^mut/mut | IGFBP-6, Dsg2^mut/mut (Bay11-7082) vs WT | IL-1a (IL-1F1), Dsg2^mut/mut (Bay11-7082) vs Dsg2^mut/mut | IL-1a (IL-1F1), Dsg2^mut/mut (Bay11-7082) vs WT | IL-1ra (IL-1F3), Dsg2^mut/mut (Bay11-7082) vs Dsg2^mut/mut
4-6: HGF, Dsg2^mut/mut (Bay11-7082) vs WT
1-2: DPPIV/CD26, Dsg2^mut/mut (Bay11-7082) vs WT | EGF, Dsg2^mut/mut (Bay11-7082) vs WT | G-CSF, Dsg2^mut/mut (Bay11-7082) vs WT | IFN-y, Dsg2^mut/mut (Bay11-7082) vs WT | IGFBP-1, Dsg2^mut/mut (Bay11-7082) vs WT | IL-1ra (IL-1F3), Dsg2^mut/mut (Bay11-7082) vs WT
